Values of other authors, collected in PMC6941357, “An in vitro toolbox to accelerate anti-malarial drug discovery and development” (Malaria Journal, 2020).
Several values for one entry are separate records, joined by “and”; a condition that tells them apart may be missing. Equal entries are not always repeated. Where two headings read alike, the source gives them in different places. Marks after values point to notes of the source that are not given here.

Legend:
[1] = tested on: human liver microsomes; details: ref 79 (DSM265), 78 (DSM421); cited from earlier work
[2] = cited from earlier work; for Solubility FaSSIF-V2 (5–6 h) / Solubility FaSSGF (1 h) / Solubility FeSSIF-V2 (5–6 h): ref 77 (M5717), 78 (DSM421), 79 (DSM265)
[3] = tested on: human liver microsomes; details: human liver microsomes, cited from earlier work
[4] = biological target: T1, CYP1A2 (Homo sapiens, UniProt P05177); design: from tissue; host or cells: human liver microsomes; details: human liver microsomes, cited from earlier work; for CYP1A2 % inhibition at max conc: nmi = no measurable inhibition
T1 sequence (P05177 1-516): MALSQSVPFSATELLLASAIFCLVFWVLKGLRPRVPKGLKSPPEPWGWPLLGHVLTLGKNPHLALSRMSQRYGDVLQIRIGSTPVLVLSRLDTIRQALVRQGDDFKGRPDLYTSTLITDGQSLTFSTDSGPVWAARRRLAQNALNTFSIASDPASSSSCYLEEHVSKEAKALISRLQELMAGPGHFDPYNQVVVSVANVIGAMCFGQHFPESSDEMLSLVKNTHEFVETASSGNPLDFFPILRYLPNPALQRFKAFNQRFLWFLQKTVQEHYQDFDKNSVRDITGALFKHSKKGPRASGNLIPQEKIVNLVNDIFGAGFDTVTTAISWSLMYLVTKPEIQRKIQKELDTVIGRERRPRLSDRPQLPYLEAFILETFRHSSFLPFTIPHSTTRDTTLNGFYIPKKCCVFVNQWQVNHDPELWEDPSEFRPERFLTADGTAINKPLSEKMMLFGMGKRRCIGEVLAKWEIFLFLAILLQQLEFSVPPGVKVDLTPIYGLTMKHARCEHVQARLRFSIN

[5] = biological target: CYP2C9 (Homo sapiens, UniProt P11712); design: from tissue; host or cells: human liver microsomes; details: human liver microsomes, cited from earlier work
Chain of CYP2C9 (P11712 whole entry): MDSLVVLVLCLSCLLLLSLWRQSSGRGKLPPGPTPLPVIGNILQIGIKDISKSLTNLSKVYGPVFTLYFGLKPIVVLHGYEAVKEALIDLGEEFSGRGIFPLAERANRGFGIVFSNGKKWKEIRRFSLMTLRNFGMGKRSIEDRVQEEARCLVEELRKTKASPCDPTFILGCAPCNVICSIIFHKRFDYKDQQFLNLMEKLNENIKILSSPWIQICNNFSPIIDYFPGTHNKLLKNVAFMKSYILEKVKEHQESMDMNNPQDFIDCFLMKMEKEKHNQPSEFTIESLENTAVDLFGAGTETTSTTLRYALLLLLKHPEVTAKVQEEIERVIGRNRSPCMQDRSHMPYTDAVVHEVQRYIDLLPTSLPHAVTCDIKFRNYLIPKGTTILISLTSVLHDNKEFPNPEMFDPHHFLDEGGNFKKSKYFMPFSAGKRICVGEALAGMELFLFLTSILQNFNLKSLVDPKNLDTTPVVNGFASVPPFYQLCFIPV

[6] = biological target: CYP2D6 (Homo sapiens, UniProt P10635); design: from tissue; host or cells: human liver microsomes; details: human liver microsomes, cited from earlier work
Chain of CYP2D6 (P10635 whole entry): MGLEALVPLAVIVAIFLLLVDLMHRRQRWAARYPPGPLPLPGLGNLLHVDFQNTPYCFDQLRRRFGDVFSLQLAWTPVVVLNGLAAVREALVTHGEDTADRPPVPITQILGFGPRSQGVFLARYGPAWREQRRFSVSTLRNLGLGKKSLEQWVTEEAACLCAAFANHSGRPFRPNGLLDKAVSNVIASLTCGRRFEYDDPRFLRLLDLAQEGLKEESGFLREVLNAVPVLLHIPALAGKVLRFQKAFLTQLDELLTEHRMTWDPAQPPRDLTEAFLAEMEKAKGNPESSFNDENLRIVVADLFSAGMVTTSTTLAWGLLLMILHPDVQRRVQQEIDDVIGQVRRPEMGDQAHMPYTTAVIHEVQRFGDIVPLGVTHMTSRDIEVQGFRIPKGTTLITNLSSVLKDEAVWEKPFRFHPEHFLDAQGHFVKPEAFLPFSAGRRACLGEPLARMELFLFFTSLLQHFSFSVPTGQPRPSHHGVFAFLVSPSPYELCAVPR

[7] = biological target: CYP3A4 (Homo sapiens, UniProt P08684); design: from tissue; host or cells: human liver microsomes; details: human liver microsomes, cited from earlier work
Chain of CYP3A4 (P08684 whole entry): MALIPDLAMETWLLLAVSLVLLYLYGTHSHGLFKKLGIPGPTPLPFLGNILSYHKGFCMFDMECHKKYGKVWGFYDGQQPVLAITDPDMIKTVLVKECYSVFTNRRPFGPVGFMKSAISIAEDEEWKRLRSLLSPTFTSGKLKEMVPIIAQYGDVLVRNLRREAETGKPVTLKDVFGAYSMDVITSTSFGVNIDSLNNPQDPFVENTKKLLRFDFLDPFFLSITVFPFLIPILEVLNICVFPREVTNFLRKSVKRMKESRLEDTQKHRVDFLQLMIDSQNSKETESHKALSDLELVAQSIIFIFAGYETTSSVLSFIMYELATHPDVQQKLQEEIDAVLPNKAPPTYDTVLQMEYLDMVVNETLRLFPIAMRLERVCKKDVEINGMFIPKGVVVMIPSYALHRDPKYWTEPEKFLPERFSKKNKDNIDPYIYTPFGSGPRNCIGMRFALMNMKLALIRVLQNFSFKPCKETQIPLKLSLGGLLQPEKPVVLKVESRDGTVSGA

[8] = biological target: T2, Albumax medium (lipid rich bovine serum albumin) (Bos taurus, UniProt P02769); design: method as in PMID 26180101; details: cited from earlier work
T2 construct: purchased Gibco, Thermo Fisher Scientific
T2 sequence (P02769 25-607): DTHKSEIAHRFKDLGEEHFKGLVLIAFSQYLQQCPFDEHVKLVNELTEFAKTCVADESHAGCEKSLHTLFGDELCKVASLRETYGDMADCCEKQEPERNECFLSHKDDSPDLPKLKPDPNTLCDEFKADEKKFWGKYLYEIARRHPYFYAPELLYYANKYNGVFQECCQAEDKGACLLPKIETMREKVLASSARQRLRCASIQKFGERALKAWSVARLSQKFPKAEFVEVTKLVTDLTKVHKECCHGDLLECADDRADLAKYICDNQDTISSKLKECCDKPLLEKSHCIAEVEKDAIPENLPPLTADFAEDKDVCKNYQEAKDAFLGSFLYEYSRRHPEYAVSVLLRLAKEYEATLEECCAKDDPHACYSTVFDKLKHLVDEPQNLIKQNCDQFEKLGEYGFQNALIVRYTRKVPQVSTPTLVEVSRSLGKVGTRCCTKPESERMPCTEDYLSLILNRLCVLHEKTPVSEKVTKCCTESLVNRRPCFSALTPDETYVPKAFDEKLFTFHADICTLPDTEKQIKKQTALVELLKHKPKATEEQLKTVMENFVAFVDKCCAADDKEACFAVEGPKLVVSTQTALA

[9] = biological target: CYP2C19 (Homo sapiens, UniProt P33261); design: from tissue; host or cells: human liver microsomes; details: human liver microsomes, cited from earlier work
Chain of CYP2C19 (P33261 whole entry): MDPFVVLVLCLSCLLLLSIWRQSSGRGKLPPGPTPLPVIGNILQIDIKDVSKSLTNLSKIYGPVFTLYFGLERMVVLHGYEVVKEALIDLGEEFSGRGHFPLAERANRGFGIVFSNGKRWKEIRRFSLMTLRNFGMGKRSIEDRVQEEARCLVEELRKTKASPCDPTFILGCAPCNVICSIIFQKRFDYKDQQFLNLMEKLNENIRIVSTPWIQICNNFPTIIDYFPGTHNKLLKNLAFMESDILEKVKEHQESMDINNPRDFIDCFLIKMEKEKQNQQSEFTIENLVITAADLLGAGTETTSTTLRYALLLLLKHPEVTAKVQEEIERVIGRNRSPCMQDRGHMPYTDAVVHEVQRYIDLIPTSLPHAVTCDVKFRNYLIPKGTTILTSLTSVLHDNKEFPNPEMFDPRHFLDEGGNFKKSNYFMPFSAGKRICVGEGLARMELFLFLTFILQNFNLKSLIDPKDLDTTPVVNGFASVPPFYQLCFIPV

[10] = design: method as in earlier work; details: octanol/pH 7.4 buffer; ref 77 (M5717), 78 (DSM421); cited from earlier work
[11] = CYP3A4 (test), read-out: CYP3A4 (test) IC50

Structure (SMILES) | Fraction unbound, HLM [1] | Solubility FaSSIF-V2 (5–6 h) [2] | IC50 [4] | CYP1A2 % inhibition at max conc [4] | CYP2C9 % inhibition at max conc [5] | IC50 [5] | IC50 [6] | CYP3A4 (test) % inhibition at max conc ([7]; CYP3A4 (test)) | IC50 [7, 11] | IC50 [9] | Measured Log D7.4 [10] | Solubility FaSSGF (1 h) [2] | Solubility FeSSIF-V2 (5–6 h) [2] | CYP2C19 % inhibition at max conc ([9]; nmi = no measurable inhibition) | also measured
Cc1cc(Nc2ccc(S(F)(F)(F)(F)F)cc2)n2nc(C(C)(F)F)nc2n1 [DSM265] | 0.28 ± 0.0070^f | 5.12 µg/mL and 12.3 µM | > 20 µM | nmi | 25% | > 20 µM | 7.1 µM | 34% | > 20 µM | > 20 µM | – | – | – | – | HLM CLint ([3]; < 15% loss over 60 min): < 7^b,e µL/min/mg; Ki [6]: 4.4 µM; Fraction unbound, Albumax [8]: 0.18 ± 0.0050^f; CYP2C19 % inhibition at max conc [9]: 19%
Cc1cc(Nc2ccc(C(F)(F)F)nc2)n2nc(C(C)(F)F)nc2n1 [DSM421] | 0.77 ± 0.065^f | 92.7 µg/mL and 259 µM | > 20 µM | nmi | 16% | > 20 µM | > 20 µM | – | > 20 µM | > 20 µM | 2.36 ^g | 116 µg/mL and 324 µM | 119 µg/mL and 332 µM | nmi | CYP2D6 % inhibition at max conc [6]: 33%; CYP3A4 (test) % inhibition at max conc ([7]; CYP3A4 (test), nmi = no measurable inhibition): nmi
O=C(NCCN1CCCC1)c1cc(-c2ccc(CN3CCOCC3)cc2)nc2ccc(F)cc12 [M5717] | – | > 3000 µg/mL and > 6490 µM | – | – | – | – | – | – | – | – | 2.50 ^g | > 3000 µg/mL and > 6490 µM | > 3000 µg/mL and > 6486 µM | – | Solubility PBS7.4 (5–6 h) [2]: > 3000 µg/mL and > 6490 µM
CS(=O)(=O)O.FC1CCN(CCOc2ccc(C3CCC4(CC3)OOC3(OO4)C4CC5CC(C4)CC3C5)cc2)CC1 (centres unmarked) [TDD-E209] | – | – | > 20 µM | nmi | – | > 20 µM | > 20 µM | 43% | > 20 µM | > 20 µM | – | – | – | nmi | HLM CLint [3]: 25.5^e µL/min/mg; CYP2C9 % inhibition at max conc ([5]; nmi = no measurable inhibition): nmi; CYP2D6 % inhibition at max conc ([6]; nmi = no measurable inhibition): nmi; CYP3A4 (midaz) % inhibition at max conc ([7]; CYP3A4 (midaz)): 33%; IC50 ([7]; CYP3A4 (midaz), read-out: CYP3A4 (midaz) IC50): > 20 µM
